# Measured values reported in patent publication US10774051B2, “6-membered heterocyclic derivatives and pharmaceutical composition comprising the same” (Shionogi & Co., Ltd., priority 2015, dated 2020).
# Where two headings read alike, the source gives them in different places.
# Biological target: human P2X7 receptor (Homo sapiens, UniProt Q99572, R270H/Y155H)
# Assay: Evaluation of human P2X7 receptor inhibitory activity (Yo-Pro uptake, BzATP stimulation, FLIPR TETRA)
# Assay type: cell-based
# In short: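 1321N1 cells stably expressing human P2X7 (T606C/G952A SNP variant), in HBSS buffer pH 7.4-7.5 with Yo-Pro, stimulated with BzATP; compound added 8 min after agonist. Fluorescence followed for 20 min on FLIPR; max-minus-min change gave % inhibition, IC50 by logistic fit.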
# [1] = antagonistic activity for the human P2X7 receptor, read-out: IC50
# [2] = 1321N1 cells stably expressing human P2X7 receptor, BzATP stimulation, Yo-Pro uptake, read-out: IC50 (antagonistic activity for the human P2X7 receptor)
SMILES,IC50 [1],IC50 [2]
COc1cn(Cc2cc(F)c(F)c(F)c2)c(Nc2cc(OCC(F)(F)F)ccc2C)nc1=O [Compound I-0932],10 to 100 nM,–
COc1cn(Cc2cc(F)c(F)c(F)c2)c(Nc2ccc(Oc3ccnc(F)c3)cc2C)nc1=O [Compound I-0933],100 to 500 nM,–
COc1cn(Cc2cc(F)c(F)c(F)c2)c(Nc2cc3sc(C(F)F)nc3cc2C)nc1=O [Compound I-0934],10 to 100 nM,–
COc1cn(Cc2cc(F)c(F)c(F)c2)c(Nc2cc3scnc3cc2C)nc1=O [Compound I-0935],–,6 nM
COc1ccc(C)cc1Nc1nc(=O)c(OC)cn1Cc1cc(F)c(F)c(F)c1 [Compound I-0936],10 to 100 nM,–
Cc1nc2cc(C)c(Nc3nc(=O)c(F)cn3Cc3cc(F)c(F)c(F)c3)cc2s1 [Compound I-0937],< 10 nM,–
COc1cn(Cc2cc(F)c(F)c(F)c2)c(Nc2cc3cc[nH]c3cc2C)nc1=O [Compound I-0938],< 10 nM,–
COc1cn(Cc2cc(F)c(F)c(F)c2)c(Nc2ccc3[nH]ccc3c2C)nc1=O [Compound I-0939],–,4 nM
COc1cn(Cc2cc(F)c(F)c(F)c2)c(Nc2cc3sc(C)nc3cc2C)nc1=O [Compound I-0940],–,240 nM
COc1cn(Cc2ccc(F)c(Cl)c2)c(Nc2cc3cc[nH]c3cc2C)nc1=O [Compound I-0941],–,12 nM
COc1cn(Cc2cc(F)c(F)c(F)c2)c(Oc2cc(-c3ncco3)ccc2C)nc1=O [Compound I-0942],–,230 nM
COc1cn(Cc2cc(F)c(F)c(F)c2)c(Nc2ccc(OCF)cc2C)nc1=O [Compound I-0943],< 10 nM,–
COc1ccc(Nc2cc(=O)c(OC)cn2Cc2ccc(F)c(Cl)c2)c(C)c1 [Compound I-0944],100 to 500 nM,–
COc1cc(C)c(Nc2cc(=O)c(OC)cn2Cc2ccccc2)cc1C [Compound I-0945],–,170 nM
COc1cn(Cc2ccccc2)c(Nc2cc(C)c(F)cc2C)cc1=O [Compound I-0946],500 to 1000 nM,–
COc1ccc(C)c(Nc2cc(=O)c(OC)cn2Cc2ccc(F)c(Cl)c2)c1 [Compound I-0947],10 to 100 nM,–
COc1cn(Cc2ccc(F)c(Cl)c2)c(Nc2cc(C)c(OC(F)F)cc2C)cc1=O [Compound I-0948],10 to 100 nM,–
COc1cn(Cc2ccc(F)c(Cl)c2)c(Nc2cc(C)c(Cl)cc2C)cc1=O [Compound I-0949],100 to 500 nM,–
COc1cn(Cc2ccccc2)c(Nc2ccc(Cl)cc2C)cc1=O [Compound I-0950],100 to 500 nM,–
COc1cn(Cc2ccccc2)c(Nc2cc(C)c(OC(F)F)cc2C)cc1=O [Compound I-0951],100 to 500 nM,–
COc1ccc(C)c(Nc2cc(=O)c(OC)cn2Cc2ccccc2)c1 [Compound I-0952],100 to 500 nM,–
COc1cn(Cc2ccc(F)c(Cl)c2)c(Nc2cc(-c3ncco3)ccc2C)cc1=O [Compound I-0953],–,25 nM
COc1cc(C)c(Nc2cc(=O)c(OC)cn2Cc2ccc(F)c(Cl)c2)cc1C [Compound I-0954],10 to 100 nM,–
COc1ccc(Cl)c(Nc2cc(=O)c(OC)cn2Cc2ccc(F)c(Cl)c2)c1 [Compound I-0955],10 to 100 nM,–
COc1cn(Cc2ccc(F)c(Cl)c2)c(Nc2cc(C(F)(F)F)ccc2C)cc1=O [Compound I-0956],100 to 500 nM,–
COc1cn(Cc2ccc(F)c(Cl)c2)c(Nc2cc(C#N)ccc2C)cc1=O [Compound I-0957],–,110 nM
COc1cn(Cc2ccc(F)c(Cl)c2)c(Nc2ccc(C#N)cc2C)cc1=O [Compound I-0958],100 to 500 nM,–

SMILES,IC50 [1],IC50 [2]
COc1ccc(Nc2cc(=O)c(OC)cn2Cc2ccccc2)c(C)c1 [Compound I-0959],500 to 1000 nM,–
COc1ccc(C)c(Oc2cc(=O)c(OC)cn2Cc2ccc(F)c(Cl)c2)c1 [Compound I-0961],–,410 nM
COc1cc(C)c(Nc2c(Cl)c(=O)c(OC)cn2Cc2ccc(F)c(Cl)c2)cc1C [Compound I-0964],100 to 500 nM,–
COc1cn(Cc2ccc(F)c(Cl)c2)c(Oc2cc(-c3ncco3)ccc2C)cc1=O [Compound I-0965],–,440 nM
COc1cn(Cc2ccc(F)c(Cl)c2)c(Oc2cc3sc(C)nc3cc2C)cc1=O [Compound I-0966],–,480 nM
COc1cnc(Nc2cccc(Cl)c2C)n(Cc2ccccc2)c1=O [Compound I-0967],–,450 nM
COc1cnc(Nc2cccc(Cl)c2C)n(Cc2cccc(Cl)c2)c1=O [Compound I-0969],500 to 1000 nM,–
COc1cnc(Nc2cccc(Cl)c2C)n(Cc2ccc(F)c(Cl)c2)c1=O [Compound I-0971],100 to 500 nM,–
COc1cnc(Nc2cccc(Cl)c2C)n(Cc2ccc(F)c(F)c2)c1=O [Compound I-0973],100 to 500 nM,–
COc1cnc(Nc2cc(C)c(Cl)cc2C)n(Cc2ccccc2)c1=O [Compound I-0981],500 to 1000 nM,–
COc1cc(C)c(Nc2ncc(OC)c(=O)n2Cc2ccc(F)c(Cl)c2)cc1C [Compound I-0985],–,65 nM
COc1cnc(Nc2cc(N3CCCC3=O)ccc2C)n(Cc2ccc(F)c(Cl)c2)c1=O [Compound I-0986],–,24 nM
COc1cnc(Nc2cc3sc(C)nc3cc2C)n(Cc2ccc(F)c(Cl)c2)c1=O [Compound I-0987],–,110 nM
COc1cnc(Nc2cc(C)cc3[nH]ccc23)n(Cc2ccc(F)c(Cl)c2)c1=O [Compound I-0989],–,300 nM
Cc1c(Cl)cccc1Nc1cc(=O)n(C)c(=O)n1Cc1ccccc1 [Compound I-0990],–,320 nM
COc1cc(C)c(Nc2cc(=O)n(C)c(=O)n2Cc2cc(F)c(F)c(F)c2)cc1C [Compound I-0991],–,29 nM
COc1cc(Nc2nc(=O)c(F)cn2Cc2ccc(F)c(F)c2)c(C)cc1Cl [Compound I-0993],< 10 nM,–
Cc1ccc(OC(F)F)cc1Nc1nc(=O)c(F)cn1Cc1cc(F)cc(F)c1 [Compound I-0994],10 to 100 nM,–
O=c1nc(Nc2cccc3c2CCN3)n(Cc2cc(F)c(F)c(F)c2)cc1F [Compound I-0995],10 to 100 nM,–
COCc1ccc(C)c(Nc2nc(=O)c(F)cn2Cc2cc(F)cc(F)c2)c1 [Compound I-0996],10 to 100 nM,–
Cc1ccc(OCC2CC2)cc1Nc1nc(=O)c(F)cn1Cc1cc(F)cc(F)c1 [Compound I-0997],10 to 100 nM,–
CCOc1ccc(C)c(Nc2nc(=O)c(F)cn2Cc2ccc(F)c(Cl)c2)c1 [Compound I-0998],< 10 nM,–
CCOc1ccc(C)c(Nc2nc(=O)c(F)cn2Cc2ccc(F)c(F)c2)c1 [Compound I-0999],< 10 nM,–
COc1nc(C)c(Nc2nc(=O)c(F)cn2Cc2cc(F)c(F)c(F)c2)cc1C [Compound I-1000],< 10 nM,–
Cc1cc2c(cc1Nc1nc(=O)c(F)cn1Cc1cc(F)cc(F)c1)CCO2 [Compound I-1001],< 10 nM,–
CCOc1ccc(C)c(Nc2nc(=O)c(F)cn2Cc2cc(F)cc(F)c2)c1 [Compound I-1002],10 to 100 nM,–
COc1nc(C)c(Nc2nc(=O)c(F)cn2Cc2cc(F)cc(F)c2)cc1C [Compound I-1003],< 10 nM,–

SMILES,IC50 [1],IC50 [2]
COc1nc(C)c(Nc2nc(=O)c(F)cn2Cc2ccc(F)c(Cl)c2)cc1C [Compound I-1004],< 10 nM,–
COc1cc(Nc2nc(=O)c(F)cn2Cc2cc(F)cc(F)c2)c(C)cc1Cl [Compound I-1005],< 10 nM,–
COc1cc(Nc2nc(=O)c(F)cn2Cc2cc(F)c(F)c(F)c2)c(C)cc1Cl [Compound I-1006],< 10 nM,–
CCOc1ccc(C)c(Nc2nc(=O)c(F)cn2Cc2cc(F)c(F)c(F)c2)c1 [Compound I-1007],< 10 nM,–
COc1nc(C)c(Nc2nc(=O)c(F)cn2Cc2ccc(F)c(F)c2)cc1C [Compound I-1008],< 10 nM,–
Cc1nc2cc(C)c(Nc3nc(=O)c(F)cn3Cc3cc(F)cc(F)c3)cc2s1 [Compound I-1009],< 10 nM,–
Cc1nc2cc(C)c(Nc3nc(=O)c(F)cn3Cc3ccc(F)c(F)c3)cc2s1 [Compound I-1010],< 10 nM,–
Cc1nc2cc(C)c(Nc3nc(=O)c(F)cn3Cc3ccc(F)cc3)cc2s1 [Compound I-1011],< 10 nM,–
Cc1ccc(CO)cc1Nc1nc(=O)c(F)cn1Cc1ccc(F)c(F)c1 [Compound I-1012],< 10 nM,–
Cc1ccc(CO)cc1Nc1nc(=O)c(F)cn1Cc1ccc(F)c(Cl)c1 [Compound I-1013],< 10 nM,–
Cc1ccc(CO)cc1Nc1nc(=O)c(F)cn1Cc1cc(F)cc(F)c1 [Compound I-1014],< 10 nM,–
Cc1ccc(CO)cc1Nc1nc(=O)c(F)cn1Cc1cc(F)c(F)c(F)c1 [Compound I-1015],< 10 nM,–
Cc1nc2[nH]ccc2cc1Nc1nc(=O)c(F)cn1Cc1cc(F)cc(F)c1 [Compound I-1016],10 to 100 nM,–
Cc1nc2[nH]ccc2cc1Nc1nc(=O)c(F)cn1Cc1cc(F)c(F)c(F)c1 [Compound I-1017],10 to 100 nM,–
Cn1ccc2c(Nc3nc(=O)c(F)cn3Cc3cc(F)c(F)c(F)c3)cccc21 [Compound I-1018],< 10 nM,–
Cn1ccc2c(Nc3nc(=O)c(F)cn3Cc3ccc(F)c(Cl)c3)cccc21 [Compound I-1019],–,4 nM
Cn1ccc2c(Nc3nc(=O)c(F)cn3Cc3ccc(F)c(F)c3)cccc21 [Compound I-1020],< 10 nM,–
Cn1ccc2c(Nc3nc(=O)c(F)cn3Cc3cc(F)cc(F)c3)cccc21 [Compound I-1021],< 10 nM,–
O=c1nc(Nc2cccc3[nH]ccc23)n(Cc2cc(F)cc(F)c2)cc1F [Compound I-1022],< 10 nM,–
O=c1nc(Nc2cccc3[nH]ccc23)n(Cc2cc(F)c(F)c(F)c2)cc1F [Compound I-1023],< 10 nM,–
O=c1nc(Nc2cccc3[nH]ccc23)n(Cc2ccc(F)c(Cl)c2)cc1F [Compound I-1024],< 10 nM,–
O=c1nc(Nc2cccc3[nH]ccc23)n(Cc2ccc(F)c(F)c2)cc1F [Compound I-1025],< 10 nM,–
Cc1cc2c(cc1Nc1nc(=O)c(F)cn1Cc1ccc(F)c(Cl)c1)COC2 [Compound I-1026],< 10 nM,–
Cc1cc2c(cc1Nc1nc(=O)c(F)cn1Cc1cc(F)cc(F)c1)COC2 [Compound I-1027],10 to 100 nM,–
Cc1cc2c(cc1Nc1nc(=O)c(F)cn1Cc1ccc(F)c(F)c1)COC2 [Compound I-1028],< 10 nM,–
